Here are results for twelve compounds from patent US6825170B2, “6-O-acyl ketolide antibacterials” (Ortho-McNeil Pharmaceutical, Inc., priority 2001, dated 2004).

Holding throughout (experiment): MIC, microdilution broth method (NCCLS)
Holding throughout (format): cell-based
What all share (conditions): 35° C., 16-20 hours

For one experiment, the system named is E. coli OC2605. Put shortly: (§1)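 Broth microdilution per NCCLS M7-A4 used two-fold compound dilutions in cation-adjusted Mueller-Hinton broth, inoculated at about 5×10^4 CFU/well. Trays were incubated at 35 °C for 16-20 h, and growth was compared with compound-free growth-control wells.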
In a further experiment the test system is E. faecalis ATCC29212. Put shortly:
as §1

Another experiment concerns H. influenzae ATCC49247. Put shortly: as §1
The subject of the next experiment is S. aureus ATCC29213. Put shortly: as §1
Another experiment deals with S. pneumoniae ATCC49619. In outline:
as §1

Molecules are shown by their SMILES. Values after ≈ are worked out from the molar mass of the structure shown.

For `CC[C@H]1OC(=O)[C@H](C)C(=O)[C@H](C)[C@@H](O[C@@H]2O[C@H](C)C[C@H](N(C)C)[C@H]2O)[C@](C)(OC(=O)NNCc2ccccc2)C[C@@H](C)C(=O)[C@H](C)[C@H]2NC(=O)O[C@@]21C` [Compound 625], in the experiment on E. coli OC2605, the “MIC (A: E. coli OC2605)” value is greater than 16 µg/mL. Besides, the “MIC (C: E. faecalis ATCC29212)” value in the experiment on E. faecalis ATCC29212 came to 0.25 µg/mL (≈ 0.335 µM). Besides, in the experiment with H. influenzae ATCC49247, the “MIC (E: H. influenzae ATCC49247)” value was 4 µg/mL (≈ 5.36 µM). Besides, the “MIC (B: S. aureus ATCC29213)” value against S. aureus ATCC29213 was determined as 2 µg/mL (≈ 2.68 µM). For the same compound, the “MIC (D: S. pneumoniae ATCC49619)” value in the experiment with S. pneumoniae ATCC49619 stood at 0.03 µg/mL (≈ 0.0402 µM).
For the compound `CC[C@H]1OC(=O)[C@H](C)C(=O)[C@H](C)[C@@H](O[C@@H]2O[C@H](C)C[C@H](N(C)C)[C@H]2O)[C@](C)(OC(=O)NNCCc2ccc(-c3ncccn3)cc2)C[C@@H](C)C(=O)[C@H](C)[C@H]2NC(=O)O[C@@]21C` [Compound 626], the “MIC (A: E. coli OC2605)” value against E. coli OC2605 was greater than 16 µg/mL. Also, the “MIC (C: E. faecalis ATCC29212)” value with E. faecalis ATCC29212 stood at 0.12 µg/mL (≈ 0.143 µM). In the experiment on H. influenzae ATCC49247, the “MIC (E: H. influenzae ATCC49247)” value stood at 4 µg/mL (≈ 4.77 µM). For the same compound, the “MIC (B: S. aureus ATCC29213)” value with S. aureus ATCC29213 came out at 0.25 µg/mL (≈ 0.298 µM). For the same compound, the “MIC (D: S. pneumoniae ATCC49619)” value with S. pneumoniae ATCC49619 is 0.03 µg/mL (≈ 0.0358 µM).
As for `CC[C@H]1OC(=O)[C@H](C)C(=O)[C@H](C)[C@@H](O[C@@H]2O[C@H](C)C[C@H](N(C)C)[C@H]2O)[C@](C)(OC(=O)NNCc2ccc3ncccc3c2)C[C@@H](C)C(=O)[C@H](C)[C@H]2NC(=O)O[C@@]21C` [Compound 661], the “MIC (A: E. coli OC2605)” value in the experiment on E. coli OC2605 is greater than 16 µg/mL. Further, the “MIC (C: E. faecalis ATCC29212)” value in the experiment with E. faecalis ATCC29212 came out at 0.12 µg/mL (≈ 0.15 µM). The “MIC (E: H. influenzae ATCC49247)” value with H. influenzae ATCC49247 amounted to 2 µg/mL (≈ 2.51 µM). In addition, in the experiment with S. aureus ATCC29213, the “MIC (B: S. aureus ATCC29213)” value is 0.5 µg/mL (≈ 0.627 µM). Further, the “MIC (D: S. pneumoniae ATCC49619)” value against S. pneumoniae ATCC49619 was 0.03 µg/mL (≈ 0.0376 µM).
Regarding `CC[C@H]1OC(=O)[C@H](C)C(=O)[C@H](C)[C@@H](O[C@@H]2O[C@H](C)C[C@H](N(C)C)[C@H]2O)[C@](C)(OC(=O)NNCc2ccc(-c3cccnn3)cc2)C[C@@H](C)C(=O)[C@H](C)[C@H]2NC(=O)O[C@@]21C` [Compound 675], in the experiment with E. coli OC2605, the “MIC (A: E. coli OC2605)” value turned out to be 16 µg/mL (≈ 19.4 µM). In the experiment with E. faecalis ATCC29212, the “MIC (C: E. faecalis ATCC29212)” value is 0.12 µg/mL (≈ 0.145 µM). The “MIC (E: H. influenzae ATCC49247)” value against H. influenzae ATCC49247 was 2 µg/mL (≈ 2.42 µM). Besides, in the experiment with S. aureus ATCC29213, the “MIC (B: S. aureus ATCC29213)” value amounted to 0.5 µg/mL (≈ 0.606 µM). The “MIC (D: S. pneumoniae ATCC49619)” value against S. pneumoniae ATCC49619 amounted to 0.06 µg/mL (≈ 0.0727 µM).
On the same counts, the results for `CC[C@H]1OC(=O)[C@H](C)C(=O)[C@H](C)[C@@H](O[C@@H]2O[C@H](C)C[C@H](N(C)C)[C@H]2O)[C@](C)(OC(=O)NNCc2ccc(-c3ncccn3)cc2)C[C@@H](C)C(=O)[C@H](C)[C@H]2NC(=O)O[C@@]21C` [Compound 676] are 8 µg/mL (≈ 9.7 µM), 0.12 µg/mL (≈ 0.145 µM), 4 µg/mL (≈ 4.85 µM), 0.25 µg/mL (≈ 0.303 µM) and 0.03 µg/mL (≈ 0.0364 µM).
In the case of `CC[C@H]1OC(=O)[C@H](C)C(=O)[C@H](C)[C@@H](O[C@@H]2O[C@H](C)C[C@H](N(C)C)[C@H]2O)[C@](C)(OC(=O)NN(C)C/C=C/c2ccc(-c3ncccn3)cc2)C[C@@H](C)C(=O)[C@H](C)[C@H]2NC(=O)O[C@@]21C` [Compound 744], in the experiment on E. coli OC2605, the “MIC (A: E. coli OC2605)” value was greater than 16 µg/mL. The “MIC (C: E. faecalis ATCC29212)” value against E. faecalis ATCC29212 came to 0.25 µg/mL (≈ 0.289 µM). Besides, the “MIC (E: H. influenzae ATCC49247)” value with H. influenzae ATCC49247 amounted to 8 µg/mL (≈ 9.25 µM). Further, in the experiment on S. aureus ATCC29213, the “MIC (B: S. aureus ATCC29213)” value was found to be 0.25 µg/mL (≈ 0.289 µM). In addition, in the experiment with S. pneumoniae ATCC49619, the “MIC (D: S. pneumoniae ATCC49619)” value was determined as 0.03 µg/mL (≈ 0.0347 µM).
With `CC[C@H]1OC(=O)[C@H](C)C(=O)[C@H](C)[C@@H](O[C@@H]2O[C@H](C)C[C@H](N(C)C)[C@H]2O)[C@](C)(OC(=O)NN(C)Cc2ccc(-c3ncccn3)cc2)C[C@@H](C)C(=O)[C@H](C)[C@H]2NC(=O)O[C@@]21C` [Compound 774], the “MIC (A: E. coli OC2605)” value in the experiment with E. coli OC2605 was greater than 16 µg/mL. For the same compound, in the experiment on E. faecalis ATCC29212, the “MIC (C: E. faecalis ATCC29212)” value turned out to be 0.25 µg/mL (≈ 0.298 µM). For the same compound, the “MIC (E: H. influenzae ATCC49247)” value in the experiment with H. influenzae ATCC49247 was found to be 4 µg/mL (≈ 4.77 µM). For the same compound, the “MIC (B: S. aureus ATCC29213)” value with S. aureus ATCC29213 was 2 µg/mL (≈ 2.38 µM). Moreover, the “MIC (D: S. pneumoniae ATCC49619)” value against S. pneumoniae ATCC49619 is 0.06 µg/mL (≈ 0.0715 µM).
For `CC[C@H]1OC(=O)[C@H](C)C(=O)[C@H](C)[C@@H](O[C@@H]2O[C@H](C)C[C@H](N(C)C)[C@H]2O)[C@](C)(OC(=O)NN(C)CCc2ccc(-c3ncccn3)cc2)C[C@@H](C)C(=O)[C@H](C)[C@H]2NC(=O)O[C@@]21C` [Compound 803], the “MIC (A: E. coli OC2605)” value in the experiment on E. coli OC2605 is greater than 16 µg/mL. In addition, the “MIC (C: E. faecalis ATCC29212)” value in the experiment on E. faecalis ATCC29212 amounted to 0.12 µg/mL (≈ 0.141 µM). For the same compound, in the experiment on H. influenzae ATCC49247, the “MIC (E: H. influenzae ATCC49247)” value turned out to be 4 µg/mL (≈ 4.69 µM). Further, the “MIC (B: S. aureus ATCC29213)” value in the experiment with S. aureus ATCC29213 was found to be 0.25 µg/mL (≈ 0.293 µM). For the same compound, the “MIC (D: S. pneumoniae ATCC49619)” value against S. pneumoniae ATCC49619 was 0.03 µg/mL (≈ 0.0352 µM).
With `CC[C@H]1OC(=O)[C@H](C)C(=O)[C@H](C)[C@@H](O[C@@H]2O[C@H](C)C[C@H](N(C)C)[C@H]2O)[C@](C)(OC(=O)NN(CC)CCc2ccc(-c3ncccn3)cc2)C[C@@H](C)C(=O)[C@H](C)[C@H]2NC(=O)O[C@@]21C` [Compound 804], in the experiment with E. coli OC2605, the “MIC (A: E. coli OC2605)” value is greater than 16 µg/mL. Further, the “MIC (C: E. faecalis ATCC29212)” value in the experiment with E. faecalis ATCC29212 was found to be 0.12 µg/mL (≈ 0.138 µM). Besides, in the experiment with H. influenzae ATCC49247, the “MIC (E: H. influenzae ATCC49247)” value was found to be 8 µg/mL (≈ 9.23 µM). Also, the “MIC (B: S. aureus ATCC29213)” value in the experiment with S. aureus ATCC29213 turned out to be 0.5 µg/mL (≈ 0.577 µM). In addition, in the experiment with S. pneumoniae ATCC49619, the “MIC (D: S. pneumoniae ATCC49619)” value worked out at 0.03 µg/mL (≈ 0.0346 µM).
On the same counts, the results for `CC[C@H]1OC(=O)[C@H](C)C(=O)[C@H](C)[C@@H](O[C@@H]2O[C@H](C)C[C@H](N(C)C)[C@H]2O)[C@](C)(OC(=O)NNC/C=C/c2ccc(-c3ncccn3)cc2)C[C@@H](C)C(=O)[C@H](C)[C@H]2NC(=O)O[C@@]21C` [Compound 805] are 16 µg/mL (≈ 18.8 µM), 0.25 µg/mL (≈ 0.294 µM), 2 µg/mL (≈ 2.35 µM), 0.25 µg/mL (≈ 0.294 µM) and 0.06 µg/mL (≈ 0.0705 µM).
With `CC[C@H]1OC(=O)[C@H](C)C(=O)[C@H](C)[C@@H](O[C@@H]2O[C@H](C)C[C@H](N(C)C)[C@H]2O)[C@](C)(OC(=O)NN(C/C=C/c2ccc(-c3ncccn3)cc2)C/C=C/c2ccc(-c3ncccn3)cc2)C[C@@H](C)C(=O)[C@H](C)[C@H]2NC(=O)O[C@@]21C` [Compound 806], in the experiment with E. coli OC2605, the “MIC (A: E. coli OC2605)” value is greater than 16 µg/mL. In addition, the “MIC (C: E. faecalis ATCC29212)” value with E. faecalis ATCC29212 was found to be 1 µg/mL (≈ 0.957 µM). For the same compound, the “MIC (E: H. influenzae ATCC49247)” value against H. influenzae ATCC49247 was 16 µg/mL (≈ 15.3 µM). In addition, in the experiment with S. aureus ATCC29213, the “MIC (B: S. aureus ATCC29213)” value was 2 µg/mL (≈ 1.91 µM). In addition, the “MIC (D: S. pneumoniae ATCC49619)” value against S. pneumoniae ATCC49619 is 0.12 µg/mL (≈ 0.115 µM).
For the compound `CC[C@H]1OC(=O)[C@H](C)C(=O)[C@H](C)[C@@H](O[C@@H]2O[C@H](C)C[C@H](N(C)C)[C@H]2O)[C@](C)(OC(=O)NN2CCC(c3ccccc3)CC2)C[C@@H](C)C(=O)[C@H](C)[C@H]2NC(=O)O[C@@]21C` [Compound 807], the MIC against E. coli OC2605 (Escherichia coli) was greater than 16 µg/mL; in the experiment on E. faecalis ATCC29212 (Enterococcus faecalis), 1 µg/mL (≈ 1.25 µM); with H. influenzae ATCC49247 (Haemophilus influenzae, read-out: MIC (E: H. influenzae ATCC49247)), 4 µg/mL (≈ 4.99 µM); in the experiment with S. aureus ATCC29213 (Staphylococcus aureus, read-out: MIC (B: S. aureus ATCC29213)), 2 µg/mL (≈ 2.5 µM); in the experiment with S. pneumoniae ATCC49619 (Streptococcus pneumoniae, read-out: MIC (D: S. pneumoniae ATCC49619)), 0.12 µg/mL (≈ 0.15 µM).
